Experimental data published in paper PMC8429728, “TNK1 is a ubiquitin-binding and 14-3-3-regulated kinase that can be targeted to block tumor growth” (Nature Communications, 2021).
Like-named read-outs stand apart in the source and are kept apart here.

Tests used:
Test in all cases: biochemical
Parameters in all cases: Reaction Biology 371-kinase panel at Km ATP, per cent enzyme activity relative to DMSO, single dose in duplicate
ARAF = target: T1, ARAF (Homo sapiens, UniProt P10398); conditions: duplicate measurements, Km ATP
T1 sequence (P10398 1-606): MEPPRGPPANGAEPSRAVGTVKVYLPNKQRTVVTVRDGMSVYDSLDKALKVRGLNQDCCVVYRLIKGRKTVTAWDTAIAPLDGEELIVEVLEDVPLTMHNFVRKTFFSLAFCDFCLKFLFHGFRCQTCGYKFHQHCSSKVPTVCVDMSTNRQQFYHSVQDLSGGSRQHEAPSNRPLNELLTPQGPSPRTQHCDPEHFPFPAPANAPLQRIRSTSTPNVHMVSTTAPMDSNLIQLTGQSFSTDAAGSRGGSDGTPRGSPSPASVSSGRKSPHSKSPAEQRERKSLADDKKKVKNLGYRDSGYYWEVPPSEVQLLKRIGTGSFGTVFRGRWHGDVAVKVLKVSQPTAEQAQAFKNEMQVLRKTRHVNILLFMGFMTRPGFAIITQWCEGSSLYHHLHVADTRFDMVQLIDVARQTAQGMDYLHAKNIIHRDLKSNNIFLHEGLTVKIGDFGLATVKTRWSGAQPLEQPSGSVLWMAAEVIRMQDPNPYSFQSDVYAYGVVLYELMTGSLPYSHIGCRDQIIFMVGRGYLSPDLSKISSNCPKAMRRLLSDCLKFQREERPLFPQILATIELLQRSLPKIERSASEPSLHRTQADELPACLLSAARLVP
Outline: (§1)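 Percent kinase activity relative to vehicle (DMSO) is reported for a 371-kinase in vitro panel at 300 nM compound; IC50 values derive from variable-slope sigmoidal fits with the lower plateau fixed at 0.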

BRK = target: T2, BRK (Homo sapiens, UniProt Q13882); conditions: duplicate measurements, Km ATP
T2 construct: gene PTK6
Outline: as §1

CAMKK2 = CAMKK2 (Homo sapiens, UniProt Q96RR4); conditions: duplicate measurements, Km ATP
Outline: as §1

CDK19/cyclin C = CDK19/cyclin C (Homo sapiens, UniProt Q9BWU1); conditions: duplicate measurements, Km ATP
Outline: as §1

CDK9/cyclin T1 = CDK9/cyclin T1 (Homo sapiens, UniProt P50750); conditions: duplicate measurements, Km ATP
Outline: as §1

CLK4 = CLK4 (Homo sapiens, UniProt Q9HAZ1); conditions: duplicate measurements, Km ATP
Outline: as §1

EPHB1 = EPHB1 (Homo sapiens, UniProt P54762); conditions: duplicate measurements, Km ATP
Outline: as §1

EPHB4 = EPHB4 (Homo sapiens, UniProt P54760); conditions: duplicate measurements, Km ATP
Outline: as §1

JAK1 = JAK1 (Homo sapiens, UniProt P23458); conditions: duplicate measurements, Km ATP
Outline: as §1

MASTL = MASTL (Homo sapiens, UniProt Q96GX5); conditions: duplicate measurements, Km ATP
Outline: as §1

NEK5 = NEK5 (Homo sapiens, UniProt Q6P3R8); conditions: duplicate measurements, Km ATP
Outline: as §1

PAK4 = PAK4 (Homo sapiens, UniProt O96013); conditions: duplicate measurements, Km ATP
Outline: as §1

PIM1 = PIM1 (Homo sapiens, UniProt P11309); conditions: duplicate measurements, Km ATP
Outline: as §1

TAOK1 = TAOK1 (Homo sapiens, UniProt Q7L7X3); conditions: duplicate measurements, Km ATP
Outline: as §1

TYRO3/SKY = TYRO3/SKY (Homo sapiens, UniProt Q06418); conditions: duplicate measurements, Km ATP; read-out: % Enzyme Activity (relative to DMSO controls) / TP-0005801 (0.3µM) / Data 1
Outline: as §1

c-Src = c-Src (Homo sapiens, UniProt P12931); conditions: duplicate measurements, Km ATP
Outline: as §1

[1] = read-out: % Enzyme Activity (relative to DMSO controls) / TP-0005801 (0.3µM) / Data 1
[2] = read-out: % Enzyme Activity (relative to DMSO controls) / TP-0005801 (0.3µM) / Data 2

Sequence of PAK4 (O96013 whole entry): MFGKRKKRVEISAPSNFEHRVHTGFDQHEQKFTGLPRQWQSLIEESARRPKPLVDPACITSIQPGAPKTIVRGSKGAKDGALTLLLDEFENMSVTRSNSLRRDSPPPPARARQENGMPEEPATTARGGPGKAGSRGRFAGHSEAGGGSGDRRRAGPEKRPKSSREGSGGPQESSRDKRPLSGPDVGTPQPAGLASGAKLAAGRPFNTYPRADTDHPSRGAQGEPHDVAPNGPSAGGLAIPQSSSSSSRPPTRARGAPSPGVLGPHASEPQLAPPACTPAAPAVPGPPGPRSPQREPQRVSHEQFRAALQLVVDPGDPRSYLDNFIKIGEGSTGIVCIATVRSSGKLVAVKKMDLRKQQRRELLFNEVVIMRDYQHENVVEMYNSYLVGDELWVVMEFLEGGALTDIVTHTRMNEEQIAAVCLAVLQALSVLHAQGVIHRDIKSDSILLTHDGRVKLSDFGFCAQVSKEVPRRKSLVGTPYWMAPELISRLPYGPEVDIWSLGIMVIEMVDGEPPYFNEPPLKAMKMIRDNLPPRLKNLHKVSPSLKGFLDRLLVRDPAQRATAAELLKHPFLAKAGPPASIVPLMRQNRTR
Sequence of PIM1 (P11309 whole entry): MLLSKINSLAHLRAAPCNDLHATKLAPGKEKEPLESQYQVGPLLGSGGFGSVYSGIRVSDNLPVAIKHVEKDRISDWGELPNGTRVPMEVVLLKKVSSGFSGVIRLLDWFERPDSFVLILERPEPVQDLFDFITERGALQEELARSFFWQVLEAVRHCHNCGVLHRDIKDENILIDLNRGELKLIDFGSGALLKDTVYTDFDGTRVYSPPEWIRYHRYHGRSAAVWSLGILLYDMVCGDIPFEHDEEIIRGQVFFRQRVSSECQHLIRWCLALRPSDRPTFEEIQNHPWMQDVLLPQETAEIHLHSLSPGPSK
Sequence of NEK5 (Q6P3R8 whole entry): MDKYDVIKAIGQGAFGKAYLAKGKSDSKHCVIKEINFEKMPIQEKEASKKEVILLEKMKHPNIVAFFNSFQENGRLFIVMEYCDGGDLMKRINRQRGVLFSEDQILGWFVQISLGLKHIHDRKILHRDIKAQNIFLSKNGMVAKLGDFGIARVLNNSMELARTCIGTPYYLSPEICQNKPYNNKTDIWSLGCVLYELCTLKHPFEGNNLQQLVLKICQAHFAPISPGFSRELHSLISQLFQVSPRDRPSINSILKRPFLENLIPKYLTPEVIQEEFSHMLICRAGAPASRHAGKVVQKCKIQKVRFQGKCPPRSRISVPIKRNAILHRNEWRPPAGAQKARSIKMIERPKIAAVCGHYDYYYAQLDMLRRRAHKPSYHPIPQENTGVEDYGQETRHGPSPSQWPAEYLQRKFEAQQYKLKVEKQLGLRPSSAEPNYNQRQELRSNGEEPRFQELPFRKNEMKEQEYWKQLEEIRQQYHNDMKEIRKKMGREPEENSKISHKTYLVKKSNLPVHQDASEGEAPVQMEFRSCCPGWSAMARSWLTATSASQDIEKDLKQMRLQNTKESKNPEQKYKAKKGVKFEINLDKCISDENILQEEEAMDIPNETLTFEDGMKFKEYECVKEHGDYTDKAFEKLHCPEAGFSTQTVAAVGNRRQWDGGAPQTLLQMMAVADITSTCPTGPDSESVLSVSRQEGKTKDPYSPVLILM
Sequence of EPHB1 (P54762 whole entry): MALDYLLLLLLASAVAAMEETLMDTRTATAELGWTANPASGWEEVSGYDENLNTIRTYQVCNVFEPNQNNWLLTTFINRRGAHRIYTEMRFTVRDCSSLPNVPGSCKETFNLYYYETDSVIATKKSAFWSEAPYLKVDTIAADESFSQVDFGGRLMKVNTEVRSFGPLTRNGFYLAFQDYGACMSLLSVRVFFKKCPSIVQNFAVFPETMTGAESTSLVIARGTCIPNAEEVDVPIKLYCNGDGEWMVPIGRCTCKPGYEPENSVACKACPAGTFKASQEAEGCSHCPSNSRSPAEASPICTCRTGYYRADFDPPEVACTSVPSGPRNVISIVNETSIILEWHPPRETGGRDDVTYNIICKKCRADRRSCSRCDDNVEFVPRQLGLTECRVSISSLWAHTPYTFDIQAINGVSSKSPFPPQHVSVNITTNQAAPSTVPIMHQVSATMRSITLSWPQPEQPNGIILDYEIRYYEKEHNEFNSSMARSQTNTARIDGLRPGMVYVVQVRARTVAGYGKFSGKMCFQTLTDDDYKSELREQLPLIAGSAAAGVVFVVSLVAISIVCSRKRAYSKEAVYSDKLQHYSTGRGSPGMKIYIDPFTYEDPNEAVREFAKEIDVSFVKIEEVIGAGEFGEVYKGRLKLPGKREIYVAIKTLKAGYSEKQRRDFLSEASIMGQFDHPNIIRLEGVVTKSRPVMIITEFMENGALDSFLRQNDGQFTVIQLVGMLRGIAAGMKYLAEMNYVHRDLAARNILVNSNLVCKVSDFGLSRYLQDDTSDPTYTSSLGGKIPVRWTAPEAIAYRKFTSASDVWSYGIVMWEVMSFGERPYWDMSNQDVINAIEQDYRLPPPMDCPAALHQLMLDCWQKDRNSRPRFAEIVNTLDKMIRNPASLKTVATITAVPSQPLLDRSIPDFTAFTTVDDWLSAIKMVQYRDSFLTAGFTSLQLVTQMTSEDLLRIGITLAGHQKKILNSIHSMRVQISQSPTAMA
Sequence of JAK1 (P23458 whole entry): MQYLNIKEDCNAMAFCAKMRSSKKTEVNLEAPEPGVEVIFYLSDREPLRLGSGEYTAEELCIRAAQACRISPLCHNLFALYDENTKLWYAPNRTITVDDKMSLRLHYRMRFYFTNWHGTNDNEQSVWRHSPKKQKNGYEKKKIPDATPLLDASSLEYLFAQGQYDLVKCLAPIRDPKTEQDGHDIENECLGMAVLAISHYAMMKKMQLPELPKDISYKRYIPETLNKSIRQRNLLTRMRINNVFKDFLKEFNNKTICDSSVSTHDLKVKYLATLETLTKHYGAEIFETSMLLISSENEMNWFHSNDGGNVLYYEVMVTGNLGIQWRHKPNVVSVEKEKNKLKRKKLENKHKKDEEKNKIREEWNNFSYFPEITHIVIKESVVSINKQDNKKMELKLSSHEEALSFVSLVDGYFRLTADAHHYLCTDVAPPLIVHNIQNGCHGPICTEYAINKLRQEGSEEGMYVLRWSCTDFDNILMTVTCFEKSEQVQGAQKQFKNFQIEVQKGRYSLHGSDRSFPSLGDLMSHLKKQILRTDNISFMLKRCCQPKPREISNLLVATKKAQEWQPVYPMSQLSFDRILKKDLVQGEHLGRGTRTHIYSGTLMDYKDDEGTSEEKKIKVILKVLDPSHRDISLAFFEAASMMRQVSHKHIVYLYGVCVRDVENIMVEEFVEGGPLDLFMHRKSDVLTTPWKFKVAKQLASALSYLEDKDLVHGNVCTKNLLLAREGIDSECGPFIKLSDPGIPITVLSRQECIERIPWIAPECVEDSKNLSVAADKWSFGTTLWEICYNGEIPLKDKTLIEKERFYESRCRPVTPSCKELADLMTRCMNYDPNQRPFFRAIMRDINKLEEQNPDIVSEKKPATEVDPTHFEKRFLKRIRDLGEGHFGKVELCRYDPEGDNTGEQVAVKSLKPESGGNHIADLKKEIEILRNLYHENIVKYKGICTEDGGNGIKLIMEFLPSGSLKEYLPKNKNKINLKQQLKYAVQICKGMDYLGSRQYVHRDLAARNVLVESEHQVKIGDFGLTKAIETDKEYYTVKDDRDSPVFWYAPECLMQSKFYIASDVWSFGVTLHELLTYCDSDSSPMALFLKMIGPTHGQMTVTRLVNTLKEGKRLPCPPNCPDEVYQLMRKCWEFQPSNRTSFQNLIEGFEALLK
Sequence of EPHB4 (P54760 whole entry): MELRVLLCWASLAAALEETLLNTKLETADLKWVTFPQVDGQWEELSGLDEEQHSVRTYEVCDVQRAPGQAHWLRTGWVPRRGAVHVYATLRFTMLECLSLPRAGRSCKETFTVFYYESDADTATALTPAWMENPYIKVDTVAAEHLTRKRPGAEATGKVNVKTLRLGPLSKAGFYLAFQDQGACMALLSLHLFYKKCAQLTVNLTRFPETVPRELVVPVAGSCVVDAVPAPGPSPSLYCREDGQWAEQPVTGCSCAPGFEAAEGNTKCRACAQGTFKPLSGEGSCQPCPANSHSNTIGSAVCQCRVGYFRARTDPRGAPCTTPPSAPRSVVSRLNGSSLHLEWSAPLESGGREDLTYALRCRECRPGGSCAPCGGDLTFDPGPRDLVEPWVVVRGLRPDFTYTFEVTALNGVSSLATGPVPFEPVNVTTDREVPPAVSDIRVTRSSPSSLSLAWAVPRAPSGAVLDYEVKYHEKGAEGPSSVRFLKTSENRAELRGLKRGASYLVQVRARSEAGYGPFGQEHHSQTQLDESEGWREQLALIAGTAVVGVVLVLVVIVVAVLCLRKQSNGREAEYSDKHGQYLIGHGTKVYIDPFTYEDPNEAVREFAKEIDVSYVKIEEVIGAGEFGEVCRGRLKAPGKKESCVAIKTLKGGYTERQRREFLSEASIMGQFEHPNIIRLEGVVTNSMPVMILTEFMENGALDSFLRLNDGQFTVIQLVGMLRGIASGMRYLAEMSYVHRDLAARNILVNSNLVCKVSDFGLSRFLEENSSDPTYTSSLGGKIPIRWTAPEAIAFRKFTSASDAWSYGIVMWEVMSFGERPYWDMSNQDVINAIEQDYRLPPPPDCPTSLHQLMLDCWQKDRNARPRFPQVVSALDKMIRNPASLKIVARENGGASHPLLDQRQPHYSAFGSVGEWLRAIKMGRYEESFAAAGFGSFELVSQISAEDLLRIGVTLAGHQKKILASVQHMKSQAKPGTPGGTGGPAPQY

remaining activity at 0.3 µM (ARAF; [1]): 88.1% | remaining activity at 0.3 µM (ARAF; [2]): 82.3% | remaining activity at 0.3 µM (BRK; [1]): 78% | remaining activity at 0.3 µM (BRK; [2]): 76.5% | remaining activity at 0.3 µM (CAMKK2; [1]): 31.9% | remaining activity at 0.3 µM (CAMKK2; [2]): 30.2% | remaining activity at 0.3 µM (CDK19/cyclin C; [1]): 54.8% | remaining activity at 0.3 µM (CDK19/cyclin C; [2]): 54.1% | remaining activity at 0.3 µM (CDK9/cyclin T1; [1]): 128% | remaining activity at 0.3 µM (CDK9/cyclin T1; [2]): 115% | remaining activity at 0.3 µM (CLK4; [1]): 30.4% | remaining activity at 0.3 µM (CLK4; [2]): 30.2% | remaining activity at 0.3 µM (EPHB1; [1]): 90.7% | remaining activity at 0.3 µM (EPHB1; [2]): 89% | remaining activity at 0.3 µM (EPHB4; [1]): 103% | remaining activity at 0.3 µM (EPHB4; [2]): 102% | remaining activity at 0.3 µM (JAK1; [1]): 104% | remaining activity at 0.3 µM (JAK1; [2]): 102% | remaining activity at 0.3 µM (MASTL; [1]): 97% | remaining activity at 0.3 µM (MASTL; [2]): 96.1% | remaining activity at 0.3 µM (NEK5; [1]): 98.5% | remaining activity at 0.3 µM (NEK5; [2]): 96.9% | remaining activity at 0.3 µM (PAK4; [1]): 59.4% | remaining activity at 0.3 µM (PAK4; [2]): 54.7% | remaining activity at 0.3 µM (PIM1; [1]): 93.2% | remaining activity at 0.3 µM (PIM1; [2]): 92.8% | remaining activity at 0.3 µM (TAOK1; [1]): 73.3% | remaining activity at 0.3 µM (TAOK1; [2]): 68.3% | remaining activity at 0.3 µM (TYRO3/SKY): 105% | remaining activity at 0.3 µM (c-Src; [1]): 107% | remaining activity at 0.3 µM (c-Src; [2]): 106%
Structure (SMILES): COc1cc(N2CCN(C)CC2)c(C)cc1Nc1ncc(Br)c(Nc2cccnc2N(C)C)n1 [TP-5801]
